Assay results reported in patent US11964949B2, “Substituted phenyloxazolidinones for antimicrobial therapy” (priority 2015, dated 2024).
In brackets after ≈: the same amount, converted by molar mass. Read-outs that look alike come from different tables or passages of the source.

What was measured:
tuberculosis = conditions: cited from earlier work
[1] = tested on: Mycobacterium tuberculosis H37Rv; test: In vitro assay for antimicrobial susceptibility (microplate Alamar blue, MIC); assay type: cell-based; conditions: for MIC: Mycobacterium tuberculosis, read-out: MIC (μg/mL) against H37Rv
[2] = tested on: mitochondrial protein synthesis (MPS) in H9C2 cells; test: In vitro assay for MPS inhibition (COX-1 / SDH-A ELISA in H9C2 cells); assay type: cell-based, rat; conditions: read-out: IC50 (μM) MPS inhibition
[3] = M. tuberculosis H37Rv, 7H9 broth, Alamar blue
[4] = Rattus norvegicus, 120 h, H9C2 cells, 5 days incubation

| Compound | MIC [1, 3] [µg/mL] | IC50 [2, 4] [µM] | also measured |
| --- | --- | --- | --- |
| CC(=O)NC[C@H]1CN(c2ccc(N3CCOCC3)c(F)c2)C(=O)O1 [Linezolid] | – | – | activity in murine models of tuberculosis (tuberculosis): only modest activity |
| (R)-5-((2H-1,2,3-Triazol-2-yl)methyl)-3-(3-fluoro-4-(2-oxa-6-azaspiro[3.3]heptan-6-yl)phenyl)oxazolidin-2-one [OTB-204] | – | – | MIC (μg/mL) against H37Rv [1, 3]: 3.2 to 3.7 µg/mL; IC50 ([2]; H9C2 cells, 5 days incubation): > 100 µM |
| O=C1O[C@@H](Cn2cncn2)CN1c1ccc(N2CCCSCC2)c(F)c1 [OTB-119, (R)-5-[(1H-1,2,4-Triazol-1-yl)methyl]-3-[3-fluoro-4-(1,4-thiazepan-4-yl)phenyl]oxazolidin-2-one] | 0.456 (≈ 1.21 µM) | > 100 | – |
| O=C(NC[C@H]1CN(c2ccc(N3CCCSCCC3)c(F)c2)C(=O)O1)c1ccco1 [OTB-117, (S)—N-[[3-(3-Fluoro-4-(1,5-thiazocan-5-yl)phenyl)-2-oxo-oxazolidin-5-yl]methyl]furan-2-carboxamide] | 0.665 (≈ 1.53 µM) | 56.3 | – |
| CCCC(=O)OC[C@H]1CN(c2ccc(N3CCC[S+]([O-])CC3)c(F)c2)C(=O)O1 (stereo partly drawn) [OTB-126, [(5R)-3-[3-Fluoro-4-(1-oxido-1,4-thiazepan-4-yl)phenyl)-2-oxo-oxazolidin-5-yl]methyl butyrate] | 0.847 (≈ 2.05 µM) | 35.6 | – |
| CCCC(=O)NC[C@H]1CN(c2cc(F)c(N3C4CCC3CSC4)c(F)c2)C(=O)O1 [OBD-029, N—(((S)-3-(4-(3-thia-8-aza-bicyclo[3.2.1]octan-8-yl)-3,5-difluorophenyl)-2-oxooxazolidin-5-yl)methyl)butyramide] | – | – | MIC ([1]; H37RV): 0.11 µg/mL (≈ 0.259 µM); IC50 ([2]; Rattus norvegicus, H9c2, 120 h): > 100 µM |
| O=C1O[C@@H](CO)CN1c1cc(F)c(N2CC3(CSC3)C2)c(F)c1 [OTB-516, (R)-3-(3,5-Difluoro-4-(2-thia-6-azaspiro[3.3]heptan-6-yl)phenyl)-5-(hydroxymethyl) oxazolidin-2-one] | 0.465 (≈ 1.36 µM) | 15.3 | – |
| O=C1O[C@@H](CO)CN1c1ccc(N2CC3CCC(C2)O3)c(F)c1 [OBD-112, 3-(4-(8-oxa-3-aza-bicyclo[3.2.1]octan-3-yl)-3-fluorophenyl)-5-(hydroxymethyl)oxazolidin-2-one] | 3.5 (≈ 10.9 µM) | > 100 | – |
| O=C(NC[C@H]1CN(c2cc(F)c(N3[C@@H]4CC[C@H]3C[S+]([O-])C4)c(F)c2)C(=O)O1)C1CCC1 (stereo partly drawn) [OTB-513, N-(((5S)-3-(3,5-Difluoro-4-((1R,5S)-3-oxido-3-thia-8-azabicyclo[3.2.1]octan-8-yl)phenyl)-2-oxo-oxazolidin-5-yl)methyl)cyclobutanecarboxamide] | – | – | MIC ([1]; H37RV): 1.66 µg/mL (≈ 3.67 µM); IC50 ([2]; Rattus norvegicus, H9c2, 120 h): 13 µM |
| O=C(NC[C@H]1CN(c2cc(F)c(N3[C@@H]4CC[C@H]3CSC4)c(F)c2)C(=O)O1)C1CCC1 [OTB-509, N—(((S)-3-(4-((1R,5S)-3-Thia-8-aza-bicyclo[3.2.1]octan-8-yl)-3,5-difluorophenyl)-2-oxo-oxazolidin-5-yl)methyl)cyclobutanecarboxamide] | – | – | MIC ([1]; H37RV): 0.04 µg/mL (≈ 0.0914 µM); IC50 ([2]; Rattus norvegicus, H9c2, 120 h): 5 µM |
| O=C1O[C@@H](Cn2nccn2)CN1c1ccc(N2CC3(C2)C[S+]([O-])C3)c(F)c1 [OTB-260-5B] | > 32 | > 100 | – |
| O=C1O[C@@H](CNc2ccon2)CN1c1cc(F)c(N2CC3(COC3)C2)c(F)c1 [OBD-061] | 0.8 (≈ 2.04 µM) | 29 | – |
| COC(=O)NC[C@H]1CN(c2cc(F)c(N3C4CCC3C[S+]([O-])C4)c(F)c2)C(=O)O1 (stereo partly drawn) [OTB-519] | – | – | MIC ([1]; H37RV): 0.9 µg/mL (≈ 2.1 µM); IC50 ([2]; Rattus norvegicus, H9c2, 120 h): 51 µM |
| CCCC(=O)OC[C@H]1CN(c2ccc(N3CCCSCCC3)c(F)c2)C(=O)O1 [OTB-110, (R)-[3-[3-Fluoro-4-(1,5-thiazocan-5-yl)phenyl]-2-oxo-5-oxazolidinyl]methyl butyrate] | 0.125 (≈ 0.304 µM) | > 100 | – |
